# Target: human P2X7 receptor (Homo sapiens, UniProt Q99572, R270H/Y155H)
# Assay: Evaluation of human P2X7 receptor inhibitory activity (Yo-Pro uptake, BzATP stimulation, FLIPR TETRA)
# Format: cell-based
# Details: 1321N1 cells stably expressing human P2X7 receptor; BzATP stimulation, Yo-Pro uptake; read-out: IC50 (antagonistic activity for the human P2X7 receptor)
# Summary of the method: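 1321N1 cells stably expressing human P2X7 (T606C/G952A SNP variant), in HBSS buffer pH 7.4-7.5 with Yo-Pro, stimulated with BzATP; compound added 8 min after agonist. Fluorescence followed for 20 min on FLIPR; max-minus-min change gave % inhibition, IC50 by logistic fit.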
row,Structure (SMILES),IC50
1,COc1cn(Cc2ccc(F)c(Cl)c2)c(Nc2cccc3[nH]c(=O)ccc23)nc1=O [Compound I-0397],67 nM
2,COc1cc(C)cc(Nc2nc(=O)c(OC)cn2Cc2cccc(F)c2)c1C [Compound I-0405],2 nM
3,COc1ccc(C)c(Nc2nc(=O)c(OC)cn2Cc2ccc(F)c(F)c2)c1 [Compound I-0407],6 nM
4,COc1cn(Cc2cc(C)cc(F)c2)c(Nc2cccc(Cl)c2C)nc1=O [Compound I-0425],19 nM
5,COc1cn(Cc2cc(F)cc(F)c2)c(Nc2cc(C)c(F)cc2C)nc1=O [Compound I-0437],8 nM
6,COc1cc(C)c(Nc2nc(=O)c(OC)cn2Cc2cc(F)cc(Cl)c2)cc1OC [Compound I-0452],110 nM
7,CCc1ccccc1CNc1nc(=O)c(OC)cn1Cc1ccc(F)c(Cl)c1 [Compound I-0453],73 nM

# Same assay, conditions: 1321N1 cells stably expressing human P2X7 receptor; BzATP stimulation, Yo-Pro uptake; read-out: IC50 (antagonistic activity for the human P2X7 receptor), class symbol
row,Structure (SMILES),IC50
1,COc1cn(Cc2ccc(F)c(Cl)c2)c(Nc2cccc3c(=O)[nH]ccc23)nc1=O [Compound I-0398],10 to 100 nM
2,COc1cn(Cc2ccc(F)c(Cl)c2)c(Nc2cc(N3CCCC3=O)ccc2C)nc1=O [Compound I-0399],< 10 nM
3,CCc1cc(F)ccc1Nc1nc(=O)c(OC)cn1Cc1ccccc1 [Compound I-0400],100 to 500 nM
4,COc1cn(Cc2ccc(F)cc2)c(Nc2cccc(N(C)C)c2C)nc1=O [Compound I-0401],10 to 100 nM
5,COc1cn(Cc2ccc(F)c(Cl)c2)c(Nc2cccc(N(C)C)c2C)nc1=O [Compound I-0402],< 10 nM
6,COc1cn(Cc2cc(F)cc(Cl)c2)c(Nc2cccc(C)c2C)nc1=O [Compound I-0403],10 to 100 nM
7,COc1cc(C)cc(Nc2nc(=O)c(OC)cn2Cc2ccc(F)c(F)c2)c1C [Compound I-0404],< 10 nM
8,COc1cc(C)c(Nc2nc(=O)c(Cl)cn2Cc2ccc(F)cc2)cc1OC [Compound I-0406],< 10 nM
9,COc1ccc(C)c(Nc2nc(=O)c(OC)cn2Cc2cc(F)cc(F)c2)c1 [Compound I-0408],10 to 100 nM
10,COc1ccc(C)c(Nc2nc(=O)c(OC)cn2Cc2cc(F)cc(Cl)c2)c1 [Compound I-0409],10 to 100 nM
11,COc1c(C)ccc(Nc2nc(=O)c(OC)cn2Cc2ccccc2)c1C [Compound I-0410],< 10 nM
12,COc1cn(Cc2ccccc2)c(Nc2cc(N3CCN(C(=O)OC(C)(C)C)CC3)ccc2C)nc1=O [Compound I-0411],100 to 500 nM
13,COc1cn(Cc2ccc(F)c(Cl)c2)c(Nc2cc(N3CCN(C(=O)OC(C)(C)C)CC3)ccc2C)nc1=O [Compound I-0412],100 to 500 nM
14,COc1cn(Cc2ccccc2)c(Nc2cc(S(=O)(=O)Nc3ccccc3)c(F)cc2C)nc1=O [Compound I-0415],500 to 1000 nM
15,COc1cn(Cc2ccccc2)c(Nc2cc(-c3nc4ncccc4o3)ccc2C)nc1=O [Compound I-0416],10 to 100 nM
16,COc1cn(Cc2ccc(F)c(Cl)c2)c(Nc2cc(-c3nc4ncccc4o3)ccc2C)nc1=O [Compound I-0417],100 to 500 nM
17,COc1c(C)ccc(Nc2nc(=O)c(OC)cn2Cc2ccc(F)c(Cl)c2)c1C [Compound I-0419],< 10 nM
18,CCc1cc(F)ccc1Nc1nc(=O)c(OC)cn1Cc1ccc(F)c(Cl)c1 [Compound I-0420],10 to 100 nM
19,COc1cn(Cc2ccccc2OC(F)F)c(Nc2cccc(Cl)c2C)nc1=O [Compound I-0421],10 to 100 nM
20,COc1cn(Cc2ccccc2COC(F)F)c(Nc2cccc(Cl)c2C)nc1=O [Compound I-0422],500 to 1000 nM
21,COc1cn(Cc2ccccc2)c(Nc2cc(Cl)c(Cl)cc2C)nc1=O [Compound I-0423],10 to 100 nM
22,COc1cc(C)cc(Nc2nc(=O)c(OC)cn2Cc2ccc(F)c(Cl)c2)c1C [Compound I-0424],< 10 nM
23,COc1cn(Cc2ccc(F)c(Cl)c2)c(Nc2cc(Cl)c(Cl)cc2C)nc1=O [Compound I-0426],10 to 100 nM
24,COc1cc(F)cc(Cn2cc(OC)c(=O)nc2Nc2cccc(Cl)c2C)c1 [Compound I-0427],100 to 500 nM
25,COc1cc(C)cc(Nc2nc(=O)c(OC)cn2Cc2cccc(Cl)c2)c1C [Compound I-0428],< 10 nM
26,COc1cn(Cc2ccccc2)c(Nc2cccc(SC)c2C)nc1=O [Compound I-0429],< 10 nM
27,COc1cn(Cc2ccc(F)c(Cl)c2)c(Nc2cccc(SC)c2C)nc1=O [Compound I-0430],< 10 nM

row,Structure (SMILES),IC50
1,COc1cn(Cc2ccccc2)c(Nc2cc3sc(C)nc3cc2C)nc1=O [Compound I-0431],10 to 100 nM
2,COc1cn(Cc2cccc(Cl)c2)c(Nc2cccc(N(C)C)c2C)nc1=O [Compound I-0432],10 to 100 nM
3,COc1cn(Cc2ccccc2)c(Nc2cc(C)c(F)cc2C)nc1=O [Compound I-0433],< 10 nM
4,COc1cn(Cc2ccc(F)c(F)c2)c(Nc2cc(C)ccc2C)nc1=O [Compound I-0434],< 10 nM
5,CCc1ccccc1Nc1nc(=O)c(OC)cn1Cc1cc(F)cc(Cl)c1 [Compound I-0435],10 to 100 nM
6,COc1cn(Cc2cc(F)cc(F)c2)c(Nc2cc(C)ccc2C)nc1=O [Compound I-0436],< 10 nM
7,COc1cccc(Nc2nc(=O)c(OC)cn2Cc2cc(F)cc(F)c2)c1C [Compound I-0438],< 10 nM
8,COc1cc(C)c(Nc2nc(=O)c(OC)cn2Cc2cc(F)cc(F)c2)cc1OC [Compound I-0439],< 10 nM
9,CCc1cc(OC)ccc1Nc1nc(=O)c(OC)cn1Cc1cc(F)cc(F)c1 [Compound I-0440],< 10 nM
10,COc1cn(Cc2cc(F)cc(F)c2)c(Nc2cccc3sccc23)nc1=O [Compound I-0441],< 10 nM
11,COc1cn(Cc2cccc(F)c2)c(Nc2cc(C)c(F)cc2C)nc1=O [Compound I-0442],< 10 nM
12,COc1cn(Cc2ccc(F)cc2)c(Nc2cc(C)c(F)cc2C)nc1=O [Compound I-0443],< 10 nM
13,COc1cn(Cc2cccc(Cl)c2)c(Nc2cc(-c3nnco3)ccc2C)nc1=O [Compound I-0444],10 to 100 nM
14,COc1cn(Cc2cc(F)cc(Cl)c2)c(Nc2cc(C)ccc2C)nc1=O [Compound I-0445],10 to 100 nM
15,COc1cn(Cc2ccccc2OC(F)F)c(Nc2cccc(Cl)c2C)nc1=O [Compound I-0446],< 10 nM
16,COc1cn(Cc2ccccc2COC(F)F)c(Nc2cccc(Cl)c2C)nc1=O [Compound I-0447],< 10 nM
17,COc1cn(Cc2ccccc2)c(Nc2cc(Cl)c(Cl)cc2C)nc1=O [Compound I-0448],10 to 100 nM
18,COc1cc(C)cc(Nc2nc(=O)c(OC)cn2Cc2ccc(F)c(Cl)c2)c1C [Compound I-0449],< 10 nM
19,COc1cn(Cc2cc(C)cc(F)c2)c(Nc2cccc(Cl)c2C)nc1=O [Compound I-0450],10 to 100 nM
20,COc1cn(Cc2ccc(F)c(Cl)c2)c(NCc2cccc(Cl)c2C)nc1=O [Compound I-0451],100 to 500 nM
21,CCc1ccccc1CNc1nc(=O)c(OC)cn1Cc1cc(F)cc(F)c1 [Compound I-0454],10 to 100 nM
22,CCOc1ccc(C)c(Nc2nc(=O)c(OC)cn2Cc2ccccc2)c1 [Compound I-0455],10 to 100 nM
23,CCOc1ccc(C)c(Nc2nc(=O)c(OC)cn2Cc2cccc(Cl)c2)c1 [Compound I-0456],10 to 100 nM
24,COc1cn(Cc2ccccc2OC(F)F)c(Nc2cccc(Cl)c2C)nc1=O [Compound I-0457],< 10 nM
25,COc1cn(Cc2ccccc2COC(F)F)c(Nc2cccc(Cl)c2C)nc1=O [Compound I-0458],10 to 100 nM
26,COc1cn(Cc2ccccc2)c(Nc2cc(Cl)c(Cl)cc2C)nc1=O [Compound I-0459],< 10 nM

# From patent US10774051B2, “6-membered heterocyclic derivatives and pharmaceutical composition comprising the same” (Shionogi & Co., Ltd., priority 2015, dated 2020)
